# Read-outs that look alike come from different tables or passages of the source.
# Assays:
# [1] = test system: Staph.; assay: Range of MIC for Staph. strains, including MRSA; details: Staphylococcus aureus, MRSA
# Experimental: Antimicrobial susceptibility testing. The in vitro activities of the antibiotics are determined by the broth microdilution method as recommended by the National Committee for Clinical Laboratory Standards (NCCLS) (1). Mueller-Hinton II broth (MHBII)(BBL Cockeysville, Md.) is the medium employed in the testing procedures. Microtiter plates containing serial dilutions of each antimicrobial agent are inoculated with each organism to yield the appropriate density (10^5 CFU/ml) in a 100 μl final volume. The plates are incubated for 18-22 hours at 35° C. in ambient air.
# Representative compounds were first incubated in mouse serum for an hour prior to the in vitro testing against a panel of selected gram-positive and gram-negative bacteria strains. All compounds were also pre-incubated in water for an hour prior to testing as control. Representative compounds of Formula I were incubated in human serum prior to MIC determination.
# [2] = test system: E. coli; assay: Range of MIC for E. coli strains; details: Escherichia coli
# [3] = read-out: Range of MIC, Staph (Mouse Serum)
# [4] = read-out: Range of MIC, Staph (Water)
# [5] = 20 h, read-out: Range of MIC, E. coli (Mouse Serum)
# [6] = read-out: Range of MIC, E. coli (Water)
Compound,"MIC [1, 3] [µg/mL]","MIC [1, 4] [µg/mL]","MIC [2, 5] [µg/mL]","MIC [2, 6] [µg/mL]"
CN(C)c1cc(NC(=O)CN(C(=O)OCOC(=O)COc2ccc(F)cc2)C(C)(C)C)c(O)c2c1C[C@H]1C[C@H]3[C@H](N(C)C)C(O)=C(C(N)=O)C(=O)[C@@]3(O)C(O)=C1C2=O [Example 64],0.12 to 0.25,0.12 to 0.5,< 0.12,0.12 to 1
"CN(C)c1cc(NC(=O)CN(C(=O)OCOC(=O)CC2CCCCC2)C(C)(C)C)c(O)c2c1C[C@H]1C[C@H]3[C@H](N(C)C)C(O)=C(C(N)=O)C(=O)[C@@]3(O)C(O)=C1C2=O [Example 65, ({[(2-{[(5aR,6aS,7S,10aS)-9-(aminocarbonyl)-4,7-bis(dimethylamino)-1,8,10a,11-tetrahydroxy-10,12-dioxo-5,5a,6,6a,7,10,10a,12-octahydrotetracen-2-yl]amino}-2-oxoethyl)(tert-butyl)amino]carbonyl}oxy)methyl cyclohexylacetate]",0.12 to 0.5,0.12 to 1,0.12 to 0.5,16
"Cc1cccc(C)c1C(=O)OCOC(=O)N(CC(=O)Nc1cc(N(C)C)c2c(c1O)C(=O)C1=C(O)[C@]3(O)C(=O)C(C(N)=O)=C(O)[C@@H](N(C)C)[C@@H]3C[C@@H]1C2)C(C)(C)C [Example 66, ({[(2-{[(5aR,6aS,7S,10aS)-9-(aminocarbonyl)-4,7-bis(dimethylamino)-1,8,10a,11-tetrahydroxy-10,12-dioxo-5,5a,6,6a,7,10,10a,12-octahydrotetracen-2-yl]amino}-2-oxoethyl)(tert-butyl)amino]carbonyl}oxy)methyl 2,6-dimethylbenzoate]",1 to 16,2 to 16,> 128,> 128
"CN(C)c1cc(NC(=O)CN(C(=O)OCOC(=O)Cc2ccccc2)C(C)(C)C)c(O)c2c1C[C@H]1C[C@H]3[C@H](N(C)C)C(O)=C(C(N)=O)C(=O)[C@@]3(O)C(O)=C1C2=O [Example 67, ({[(2-{[(5aR,6aS,7S,10aS)-9-(aminocarbonyl)-4,7-bis(dimethylamino)-1,8,10a,11-tetrahydroxy-10,12-dioxo-5,5a,6,6a,7,10,10a,12-octahydrotetracen-2-yl]amino}-2-oxoethyl)(tert-butyl)amino]carbonyl}oxy)methyl phenylacetate]",0.12 to 0.25,0.12 to 1,0.12 to 0.25,8 to 32
"CN(C)c1cc(NC(=O)CN(C(=O)OCOC(=O)C(C)(C)C)C(C)(C)C)c(O)c2c1C[C@H]1C[C@H]3[C@H](N(C)C)C(O)=C(C(N)=O)C(=O)[C@@]3(O)C(O)=C1C2=O [Example 68, ({[(2-{[(5aR,6aS,7S,10aS)-9-(aminocarbonyl)-4,7-bis(dimethylamino)-1,8,10a,11-tetrahydroxy-10,12-dioxo-5,5a,6,6a,7,10,10a,12-octahydrotetracen-2-yl]amino}-2-oxoethyl)(tert-butyl)amino]carbonyl}oxy)methyl pivalate]",0.12 to 0.25,0.12 to 1,0.12 to 1,2 to 8
"CN(C)c1cc(NC(=O)CN(C(=O)OCOC(=O)c2cc3ccccc3o2)C(C)(C)C)c(O)c2c1C[C@H]1C[C@H]3[C@H](N(C)C)C(O)=C(C(N)=O)C(=O)[C@@]3(O)C(O)=C1C2=O [Example 69, ({[(2-{[(5aR,6aS,7S,10aS)-9-(aminocarbonyl)-4,7-bis(dimethylamino)-1,8,10a,11-tetrahydroxy-10,12-dioxo-5,5a,6,6a,7,10,10a,12-octahydrotetracen-2-yl]amino}-2-oxoethyl)(tert-butyl)amino]carbonyl}oxy)methyl 1-benzofuran-2-carboxylate]",0.12 to 0.25,0.12 to 1,0.12 to 0.5,8 to 64
CN(C)c1cc(NC(=O)CN(C(=O)OCOC(=O)c2cccn2C)C(C)(C)C)c(O)c2c1C[C@H]1C[C@H]3[C@H](N(C)C)C(O)=C(C(N)=O)C(=O)[C@@]3(O)C(O)=C1C2=O [Example 70],1 to 4,2 to 4,4 to 8,> 64
"COc1ccc(C(=O)OCOC(=O)N(CC(=O)Nc2cc(N(C)C)c3c(c2O)C(=O)C2=C(O)[C@]4(O)C(=O)C(C(N)=O)=C(O)[C@@H](N(C)C)[C@@H]4C[C@@H]2C3)C(C)(C)C)cc1 [Example 72, ({[(2-{[(5aR,6aS,7S,10aS)-9-(aminocarbonyl)-4,7-bis(dimethylamino)-1,8,10a,11-tetrahydroxy-10,12-dioxo-5,5a,6,6a,7,10,10a,12-octahydrotetracen-2-yl]amino}-2-oxoethyl)(tert-butyl)amino]carbonyl}oxy)methyl 4-methoxybenzoate]",0.5 to 1,4 to 8,0.5 to 1,> 64
"CN(C)c1cc(NC(=O)CN(C(=O)OCOC(=O)c2cc3ccccc3[nH]2)C(C)(C)C)c(O)c2c1C[C@H]1C[C@H]3[C@H](N(C)C)C(O)=C(C(N)=O)C(=O)[C@@]3(O)C(O)=C1C2=O [Example 73, ({[(2-{[(5aR,6aS,7S,10aS)-9-(aminocarbonyl)-4,7-bis(dimethylamino)-1,8,10a,11-tetrahydroxy-10,12-dioxo-5,5a,6,6a,7,10,10a,12-octahydrotetracen-2-yl]amino}-2-oxoethyl)(tert-butyl)amino]carbonyl}oxy)methyl 1H-indole-2-carboxylate]",1 to 4,4 to 8,0.5 to 1,> 64
"CN(C)c1cc(NC(=O)OCOC(=O)c2cccs2)c(O)c2c1C[C@H]1C[C@H]3[C@H](N(C)C)C(O)=C(C(N)=O)C(=O)[C@@]3(O)C(O)=C1C2=O [Example 75, [({[(5aR,6aS,7S,10aS)-9-(aminocarbonyl)-4,7-bis(dimethylamino)-1,8,10a,11-tetrahydroxy-10,12-dioxo-5,5a,6,6a,7,10,10a,12-octahydrotetracen-2-yl]amino}carbonyl)oxy]methyl thiophene-2-carboxylate]",8 to 16,16 to 32,,> 64
"CN(C)c1cc(NC(=O)OCOC(=O)c2ccc(F)cc2)c(O)c2c1C[C@H]1C[C@H]3[C@H](N(C)C)C(O)=C(C(N)=O)C(=O)[C@@]3(O)C(O)=C1C2=O [Example 76, [({[(5aR,6aS,7S,10aS)-9-(aminocarbonyl)-4,7-bis(dimethylamino)-1,8,10a, 1-tetrahydroxy-10,12-dioxo-5,5a,6,6a,7,10,10a,12-octahydrotetracen-2-yl]amino}carbonyl)oxy]methyl 4-fluorobenzoate]",8 to 16,8 to 32,,> 64
"Cc1cc(C)cc(C(=O)OCOC(=O)Nc2cc(N(C)C)c3c(c2O)C(=O)C2=C(O)[C@]4(O)C(=O)C(C(N)=O)=C(O)[C@@H](N(C)C)[C@@H]4C[C@@H]2C3)c1 [Example 77, [({[(5aR,6aS,7S,10aS)-9-(aminocarbonyl)-4,7-bis(dimethylamino)-1,8,10a,11-tetrahydroxy-10,12-dioxo-5,5a,6,6a,7,10,10a,12-octahydrotetracen-2-yl]amino}carbonyl)oxy]methyl 3,5-dimethylbenzoate]",2 to 4,4 to 32,,> 64
"CN(C)c1cc(NC(=O)OCOC(=O)C(C)(C)C)c(O)c2c1C[C@H]1C[C@H]3[C@H](N(C)C)C(O)=C(C(N)=O)C(=O)[C@@]3(O)C(O)=C1C2=O [Example 78, [({[(5aR,6aS,7S,10aS)-9-(aminocarbonyl)-4,7-bis(dimethylamino)-1,8,10a,11-tetrahydroxy-10,12-dioxo-5,5a,6,6a,7,10,10a,12-octahydrotetracen-2-yl]amino}carbonyl)oxy]methyl pivalate]",8,8 to 32,16 to 64,> 64
"CN(C)c1cc(NC(=O)OCOC(=O)CC(C)(C)C)c(O)c2c1C[C@H]1C[C@H]3[C@H](N(C)C)C(O)=C(C(N)=O)C(=O)[C@@]3(O)C(O)=C1C2=O [Example 79, [({[(5aR,6aS,7S,10aS)-9-(aminocarbonyl)-4,7-bis(dimethylamino)-1,8,10a,11-tetrahydroxy-10,12-dioxo-5,5a,6,6a,7,10,10a,12-octahydrotetracen-2-yl]amino}carbonyl)oxy]methyl 3,3-dimethylbutanoate]",4,4 to 8,,> 64
"CCC(C)(C)C(=O)OCOC(=O)Nc1cc(N(C)C)c2c(c1O)C(=O)C1=C(O)[C@]3(O)C(=O)C(C(N)=O)=C(O)[C@@H](N(C)C)[C@@H]3C[C@@H]1C2 [Example 80, [({[(5aR,6aS,7S,10aS)-9-(aminocarbonyl)-4,7-bis(dimethylamino)-1,8,10a,11-tetrahydroxy-10,12-dioxo-5,5a,6,6a,7,10,10a,12-octahydrotetracen-2-yl]amino}carbonyl)oxy]methyl 2,2-dimethylbutanoate]",4 to 8,4 to 16,,
"CN(C)c1cc(NC(=O)CN(C(=O)OCOC(=O)c2cn(C)c3ccccc23)C(C)(C)C)c(O)c2c1C[C@H]1C[C@H]3[C@H](N(C)C)C(O)=C(C(N)=O)C(=O)[C@@]3(O)C(O)=C1C2=O [Example 83, ({[(2-{[(5aR,6aS,7S,10aS)-9-(aminocarbonyl)-4,7-bis(dimethylamino)-1,8,10a,11-tetrahydroxy-10,12-dioxo-5,5a,6,6a,7,10,10a,12-octahydrotetracen-2-yl]amino}-2-oxoethyl)(tert-butyl)amino]carbonyl}oxy)methyl 1-methyl-1H-indole-3-carboxylate]",8 to 32,2 to 16,,> 64
"CN(C)c1cc(NC(=O)CN(C(=O)OCOC(=O)c2ccc3ccccc3n2)C(C)(C)C)c(O)c2c1C[C@H]1C[C@H]3[C@H](N(C)C)C(O)=C(C(N)=O)C(=O)[C@@]3(O)C(O)=C1C2=O [Example 84, ({[(2-{[(5aR,6aS,7S,10aS)-9-(aminocarbonyl)-4,7-bis(dimethylamino)-1,8,10a,11-tetrahydroxy-10,12-dioxo-5,5a,6,6a,7,10,10a,12-octahydrotetracen-2-yl]amino}-2-oxoethyl)(tert-butyl)amino]carbonyl}oxy)methyl quinoline-2-carboxylate]",0.5 to 2,0.5 to 4,2 to 4,> 64
